The source of these data is patent US20140033367A1 (priority 2010, published 2014).

For assay [1], the system named is protoplasts from UT leaves. The assay can be described thus: Protoplast culture with hormones or hormone conjugates, UT protoplasts. To be noted: for Division Efficiency / Plating Efficiency: hormone concentration in mg L^−1. Type of assay: cell-based, Nicotiana tabacum. On the procedure:
(§1) To evaluate the effects of hormones or hormone conjugates on protoplast division, six hormones or conjugate combinations (Table IV) were tested in the protoplast culture.
(§2) The protocol of the protoplast isolation was modified from the method of Rao and Prakash (1995). Leaves from BGL-1 and UT were cut into small pieces and placed on the surface of the enzyme solution with the lower surface down. Incubation was carried out in the dark at a temperature of 25° C.±1° C. for 8 h to release the protoplasts. The enzymatic cocktail contained 2% (w/v) cellulase Onozuka R-10, 0.5% (w/v) macerozyme R-10, 0.2% (w/v) dextran potassium sulfate, 5 mm CaCl2.2H2O, and 0.7 m mannitol, pH 5.8. After removing undigested materials and digested debris by filtration through a […] steel mesh, the enzymatic mixture was centrifuged at 1,000 rpm for 10 min. The protoplasts were resuspended in 5 mL of washing medium, and the process was repeated three times. Protoplasts were cultured at a density of 2×10^5 mL^−1 in 5-cm petri dishes in 3 mL of culture medium (Rao and Prakash, 1995) supplemented with different hormone or conjugate hormone regimes (Table IV). The cultures were kept at 25° C. in the dark. After 7 d, fresh medium was added to each petri dish, and the addition of medium was repeated on the 11th d of culture. […] After the development of microcalli visible to the naked eye, the cultures were transferred to light.

The test system of assay [2] is protoplasts from BGL-1 leaves. The assay can be described thus: Protoplast culture with hormones or hormone conjugates, BGL-1 protoplasts. Type of assay: cell-based, Nicotiana tabacum. To be noted: for Division Efficiency / Plating Efficiency: BGL-1 protoplasts, hormone concentration in mg L^−1. On the procedure: as §1, §2

On to `C/C(=C\CNc1ncnc2[nH]cnc12)CO` [Zeatin (1.0), Zeatin], for which, in assay [1], the “Division Efficiency” value is given as 6.8 ± 0.9% and the “Plating Efficiency” value was found to be 4.6 ± 0.3%. Further, in assay [2], the “Division Efficiency” value was determined as 10.6 ± 0.8% and the “Plating Efficiency” value is recorded as 6.2 ± 0.4%.

Turning to “Naphthylacetic acid [Naphthylacetic acid (3.0)]”, in assay [1], the “Division Efficiency” value amounted to 4.8 ± 0.7% and the “Plating Efficiency” value was 3.3 ± 0.2%. Moreover, in assay [2], the “Division Efficiency” value came to 9.1 ± 1.8% and the “Plating Efficiency” value worked out at 4.3 ± 0.5%.

For “Zeatin-O-glucoside [Zeatin-O-glucoside (1.0)]”, in assay [1], the “Division Efficiency” value was determined as 0% and the “Plating Efficiency” value is 0%. Further, the “protoplast division and cell colony formation” value in assay [1] (zeatin-O-glucoside only) is “did not divide and form cell colonies”. In assay [2], the “Division Efficiency” value is 7.5 ± 1.2% and the “Plating Efficiency” value came to 3.7 ± 0.3%. In addition, in assay [2] (exogenously supplied zeatin-O-glucoside), the “increase of cell division efficiency of BGL-1 protoplasts compared with UT protoplasts” value worked out at 670%.
